# Experimental data as given in patent publication US20210196724A1, “BIARYL COMPOSITIONS AND METHODS FOR MODULATING A KINASE CASCADE” (Athenex, Inc., priority 2016, published 2021).
# Where “and” joins values, the source holds several entries; their conditions need not be identical. Equal values may be shown once. Read-outs that look alike come from different tables or passages of the source.
# Columns and labels:
# [1] = system: GL261 cells; assay: MTT cell growth inhibition (GI50), GL261; assay type: cell-based, murine; conditions: 3 days
# Procedure: (§1) The drug concentration required to block net cell growth by 50% relative to a control sample is measured as the GI50. The GI50s for several of the compounds of the application were assayed as described.
# (§2) MTT assay: U87 and GL261 cells were seeded in 96-well plate (6×10^3 cells in 100 μl of DMEM+10% FBS media per well) and incubated overnight at 37° C. with 5% CO2. All test compounds were diluted (10 point 2-fold serial dilution) in a separate 96-well plate to yield 10× of final concentrations (0.5-256 nM). A volume of 11 μl of 10× dilutions was added to appropriate wells (n=3). To value (reflecting the starting number of cells upon drug treatment) was determined by following steps as described below. After 3 days incubation at 37° C. with 5% CO2, 10 μl of MTT solution (5 mg/ml in PBS) was added to each well and plates were incubated at 37° C. for 3 h to allow MTT to form formazan crystals by reacting with metabolically active cells. 100 μl of 20% SDS was added to each well and plates were incubated overnight at 37° C. with 5% CO2. Afterward, OD570 was measured using microplate reader. The cell growth percentage of control was calculated according to percentage of control=(T−T0)/(C−T0)×100% or OD value of the test well exposure to test drug—OD value at time zero/(OD of the control well without drug treatment−OD value at time zero)×100%. Growth inhibition curves and GI50 were determined using GraphPad Prism 5 software.
# [2] = system: U87 cells; assay: MTT cell growth inhibition (GI50), U87; assay type: cell-based, human; conditions: 3 days
# Procedure: as §1, §2
# [3] = system: Jurkat; assay: Cell growth inhibition (GI50), Jurkat; assay type: cell-based
# Procedure: as §1
# [4] = system: HT-29; assay: Cell growth inhibition (GI50), HT-29; assay type: cell-based
# Procedure: as §1
structure (smiles),measurement,setting,value
Cc1cc(N2CCOC[C@@H]2C)ccc1-c1ccc(CC(=O)NCc2ccccc2)nc1 (stereo in doubt) [Compound 104],GI50,[1],10 nM and 5.3 nM
same,GI50,[2],4 nM
same,GI50,[3],2.5 nM
same,GI50,[3]; Homo sapiens,2.3 nM
same,GI50,[4]; HT-29,2.5 nM
same,GI50,"[4]; Homo sapiens, HT-29, HT-29",3.1 nM
